Source: patent US10183936B2, “Hepatitis B core protein allosteric modulators” (priority 2014, dated 2019)

Columns and labels:
[1] = tested on: HBV viral production in AD38 cells; assay: Viral load production in AD38 cells by quantitative PCR of the HBV core sequence in supernatant; format: cell-based; conditions: Hepatitis B virus, 144 h; 10 μM compound, 6 days at 37° C., viral load in supernatant compared against DMSO control wells; read-out: AD38 Viral Load (CpAM/DMSO %) at 10 μM
Description: (§1) Example 56: Assay Measuring Activity of Compounds on Viral Production in and on Viability of AD38 Cells
(§2) AD38 cells were then re-suspended with 10 mL of Treatment Medium and counted. Wells of a collagen coated 96-well NUNC microtiter plate were seeded at 50,000/well in 180 μL of Treatment Medium, and 20 μL of in treatment media with either 10% DMSO (Control) or a 10× solution of compound in 10% DMSO was added. Plates were incubated for 6 days at 37° C.
Viral load production was assayed by quantitative PCR of the core sequence. Briefly, 5 μL of clarified supematant was added to a PCR reaction mixture that contained forward primers HBV-f 5′-CTGTGCCTTGGGTGGCTTT-3′, Reverse primers HBV-r 5′-[…]-3′ and Fluorescent TaqMan™ Probes HBV-probe 5′-FAM/AGCTCCAAA/ZEN/[…]/3IABkFQ-3′ in Quanta Biosciences PerfeCTa® qPCR Toughmix®, and was subsequently on an Applied Biosystems VIIA7 in a final volume of 20 μL. The PCR mixture was incubated at 45° C. for 5 minutes, then 95° C. for 10 min, followed by 40 cycles of 10 seconds at 95° C. and 20 seconds at 60° C. Viral load was quantitated against known standards by using ViiA™ 7 Software. Viral load in the supematant from wells with treated cells were compared against viral load in supernatant from DMSO control wells (≥3 per plate).

[2] = tested on: AD38 cells; assay: Viability of AD38 cells (Promega CellTiter-Glo) at the end of compound treatment; format: cell-based; conditions: 10 μM compound, 6 days, luminescence normalized against DMSO control wells (controls being 100%)
Description: as §1, §2
At the end of compound treatment period cell viability was assessed using a Promega CellTiter-Glo protocol. All supernatant was removed the previously treated 96-well microtiter plate, and 50 μL Tetracycline-free treatment medium (DMEM/F12 (1:1), lx Pen/step (cat#: 30-002-CL, Mediatech, Inc), with 2% FBS, Tet-system approved (cat#: 631106, Clontech), and 1% DMSO was added back to each well. Another 50 μL of CellTiter-Glo reagent solution (Promega, G7573) was then added at room temperature and the contents mixed for 2 minutes on an orbital shaker to induce cell lysis. This was followed by incubation at room temperature for 10 minutes to stabilize the luminescent signal. The luminescence was recorded for 0.2 seconds per well on a Tecan multimode platereader (Infinite M1000 pro). The luminescent signal from each well was normalized against that of untreated (DMSO) control wells. All results were reported percent viability (with controls being 100%).

## COC(=O)c1ccccc1-c1cccc(NC(=O)c2ccc3c(c2)NC(=O)c2cc(F)ccc2S3)c1 [Compound 1436, Methyl 3′-(2-fluoro-11-oxo-10, 11-dihydrodibenzo [b,f] [1,4]thiazepine-8-carboxamido)-[1, 1′-biphenyl]-2-carboxylate]
[1]
  activity at 10 µM: 10%
[2]
  AD38 Viability Normalized Result (CPAM/DMSO %) at 10 μM: 104%

## O=C(NCCC(c1ccccc1)N1CCCC1)c1ccc2c(c1)NC(=O)c1ccccc1S2 (stereo not shown) [Compound 1252]
[1]
  activity at 10 µM: 14%
[2]
  AD38 Viability Normalized Result (CPAM/DMSO %) at 10 μM: 94%

## CN(C)S(=O)(=O)c1ccc(CCNC(=O)c2ccc3c(c2)NC(=O)c2ccc(F)cc2S3)cc1 [Compound 1387]
[1]
  activity at 10 µM: 2%
[2]
  AD38 Viability Normalized Result (CPAM/DMSO %) at 10 μM: 78%

## O=C(NCc1cnco1)c1ccc2c(c1)NC(=O)c1ccccc1N2Cc1ccccc1 [Compound 1492]
[1]
  activity at 10 µM: 39%
[2]
  AD38 Viability Normalized Result (CPAM/DMSO %) at 10 μM: 79%

## O=C(Nc1ccncc1)c1cc2c(cc1F)Sc1ccccc1C(=O)N2 [Compound 1508]
[1]
  activity at 10 µM: 31%
[2]
  AD38 Viability Normalized Result (CPAM/DMSO %) at 10 μM: 81%

## O=C(NCCc1ccc(-c2ccccc2)cc1)c1ccc2c(c1)NC(=O)c1ccccc1S2 [Compound 1111]
[1]
  activity at 10 µM: 2%
[2]
  AD38 Viability Normalized Result (CPAM/DMSO %) at 10 μM: 89%

## O=C(NCC1CCC1)c1ccc2c(c1)NC(=O)c1ccccc1S2 [Compound 1174]
[1]
  activity at 10 µM: 35%
[2]
  AD38 Viability Normalized Result (CPAM/DMSO %) at 10 μM: 109%

## O=C(NCc1cccnc1)c1ccc2c(c1)NC(=O)c1ccccc1O2 [Compound 1594]
[1]
  activity at 10 µM: 4%
[2]
  AD38 Viability Normalized Result (CPAM/DMSO %) at 10 μM: 109%

## COc1ccc(CCNC(=O)c2ccc3c(c2)NC(=O)c2ccccc2S3)cc1OC [Compound 1125]
[1]
  activity at 10 µM: 20%
[2]
  AD38 Viability Normalized Result (CPAM/DMSO %) at 10 μM: 108%

## O=C(NCc1cncs1)c1cc2c(cc1F)Sc1ccccc1C(=O)N2 [Compound 1429]
[1]
  activity at 10 µM: 38%
[2]
  AD38 Viability Normalized Result (CPAM/DMSO %) at 10 μM: 90%

## CCOC(=O)C(NC(=O)c1ccc2c(c1)NC(=O)c1cc(F)ccc1S2)c1ccccn1 (stereo not shown) [Compound 1424]
[1]
  activity at 10 µM: 65%
[2]
  AD38 Viability Normalized Result (CPAM/DMSO %) at 10 μM: 96%

## O=C(NC[C@@H](C(=O)O)c1ccccc1)c1ccc2c(c1)NC(=O)c1ccccc1S2 [Compound 1269, (S)-3-(11-oxo-10, 11-dihydrodibenzo [b,f] [1,4]thiazepine-8-carboxamido)-2-phenylpropanoic acid]
[1]
  activity at 10 µM: 63%
[2]
  AD38 Viability Normalized Result (CPAM/DMSO %) at 10 μM: 107%

## O=C(NCc1ccncn1)c1ccc2c(c1)NC(=O)c1ccccc1S2 [Compound 1585]
[1]
  activity at 10 µM: 66%
[2]
  AD38 Viability Normalized Result (CPAM/DMSO %) at 10 μM: 87%

## O=C(NCCc1ccc(-n2cncn2)cc1)c1ccc2c(c1)NC(=O)c1ccccc1S2 [Compound 1249]
[1]
  activity at 10 µM: 34%
[2]
  AD38 Viability Normalized Result (CPAM/DMSO %) at 10 μM: 108%

## O=C(NCCC1CCC(O)CC1)c1ccc2c(c1)NC(=O)c1ccccc1S2 (stereo not shown) [Compound 1204]
[1]
  activity at 10 µM: 2%
[2]
  AD38 Viability Normalized Result (CPAM/DMSO %) at 10 μM: 97%

## Cl.O=C(NCC1CCNC1)c1ccc2c(c1)NC(=O)c1ccccc1S2 (stereo not shown) [Compound 1608, 11-oxo-N-(pyrrolidin-3-ylmethyl)-10, 11-dihydrodibenz[b,f] [1,4] thiazepine-8-carboxamide hydrochloride]
[1]
  activity at 10 µM: 63%
[2]
  AD38 Viability Normalized Result (CPAM/DMSO %) at 10 μM: 103%

## O=C(NC[C@@H](O)c1ccccc1)c1ccc2c(c1)NC(=O)c1ccccc1S2 [Compound 1226]
[1]
  activity at 10 µM: 1%
[2]
  AD38 Viability Normalized Result (CPAM/DMSO %) at 10 μM: 80%

## O=C(NCCc1ccc(-c2ccccc2)cc1)c1ccc2c(c1)NC(=O)c1ccccc1[S+]2[O-] (stereo not shown) [Compound 1476]
[1]
  activity at 10 µM: 1%
[2]
  AD38 Viability Normalized Result (CPAM/DMSO %) at 10 μM: 86%

## O=C(NCc1cncs1)c1ccc2c(c1)NC(=O)c1cccc(F)c1S2 [Compound 1407]
[1]
  activity at 10 µM: 3%
[2]
  AD38 Viability Normalized Result (CPAM/DMSO %) at 10 μM: 103%

## O=C1Nc2cc(S(=O)(=O)NCc3cncnc3)ccc2Sc2ccccc21 [Compound 1473]
[1]
  activity at 10 µM: 81%
[2]
  AD38 Viability Normalized Result (CPAM/DMSO %) at 10 μM: 97%

## O=C(Nc1cccc(-c2ccccc2)c1)c1ccc2c(c1)NC(=O)c1ccccc1[S+]2[O-] (stereo not shown) [Compound 1375]
[1]
  activity at 10 µM: 11%
[2]
  AD38 Viability Normalized Result (CPAM/DMSO %) at 10 μM: 89%

## CCOC(=O)C(NC(=O)c1ccc2c(c1)NC(=O)c1cc(F)ccc1S2)c1ccncc1 (stereo not shown) [Compound 1405]
[1]
  activity at 10 µM: 14%
[2]
  AD38 Viability Normalized Result (CPAM/DMSO %) at 10 μM: 94%

## O=C(NCCc1cnco1)c1ccc2c(c1)NC(=O)c1c(F)cccc1S2 [Compound 1580]
[1]
  activity at 10 µM: 59%
[2]
  AD38 Viability Normalized Result (CPAM/DMSO %) at 10 μM: 89%

## Cc1c(C(=O)NCc2cccnc2)ccc2c1NC(=O)c1ccccc1S2 [Compound 1515]
[1]
  activity at 10 µM: 2%
[2]
  AD38 Viability Normalized Result (CPAM/DMSO %) at 10 μM: 82%

## O=C(Nc1ccccc1)c1ccc2c(c1)NC(=O)c1cc(F)ccc1S2 [Compound 1319]
[1]
  activity at 10 µM: 16%
[2]
  AD38 Viability Normalized Result (CPAM/DMSO %) at 10 μM: 83%

## O=C(NC[C@H](CO)c1ccccc1)c1ccc2c(c1)NC(=O)c1ccccc1S2 [Compound 1258]
[1]
  activity at 10 µM: 12%
[2]
  AD38 Viability Normalized Result (CPAM/DMSO %) at 10 μM: 105%

## Cl.O=C(NCC1CCNCC1)c1ccc2c(c1)NC(=O)c1ccccc1S2 [Compound 1609, 11-oxo-N-(piperidin-4-ylmethyl)-10, 11-dihydrodibenzo [b,f] [1,4] thiazepine-8-carboxamide hydrochloride]
[1]
  activity at 10 µM: 68%
[2]
  AD38 Viability Normalized Result (CPAM/DMSO %) at 10 μM: 99%

## O=C(Nc1cccc(-c2ccccc2)c1)c1ccc2c(c1)NC(=O)c1cc(F)ccc1S2 [Compound 1333]
[1]
  activity at 10 µM: 20%
[2]
  AD38 Viability Normalized Result (CPAM/DMSO %) at 10 μM: 73%

## CN1c2ccc(C(=O)NCCc3ccccn3)cc2NC(=O)c2ccccc21 [Compound 1498]
[1]
  activity at 10 µM: 1%
[2]
  AD38 Viability Normalized Result (CPAM/DMSO %) at 10 μM: 82%

## O=C(NCCc1cnco1)c1cc2c(cc1F)Sc1ccccc1C(=O)N2 [Compound 1557]
[1]
  activity at 10 µM: 54%
[2]
  AD38 Viability Normalized Result (CPAM/DMSO %) at 10 μM: 86%

## O=C(Nc1ncc(-c2ccccc2)s1)c1ccc2c(c1)NC(=O)c1cc(F)ccc1S2 [Compound 1481]
[1]
  activity at 10 µM: 46%
[2]
  AD38 Viability Normalized Result (CPAM/DMSO %) at 10 μM: 100%

## O=C(NCCc1ccc(Br)cc1)c1ccc2c(c1)NC(=O)c1ccccc1S2 [Compound 1122]
[1]
  activity at 10 µM: 21%
[2]
  AD38 Viability Normalized Result (CPAM/DMSO %) at 10 μM: 86%

## O=C(NCc1cncs1)c1ccc2c(c1)NC(=O)c1cc(F)ccc1S2 [Compound 1309]
[1]
  activity at 10 µM: 1%
[2]
  AD38 Viability Normalized Result (CPAM/DMSO %) at 10 μM: 107%

## O=C(NCC1CC1)c1ccc2c(c1)NC(=O)c1ccccc1S2 [Compound 1173]
[1]
  activity at 10 µM: 39%
[2]
  AD38 Viability Normalized Result (CPAM/DMSO %) at 10 μM: 105%

## CCN1c2ccc(C(=O)NCCc3cncnc3)cc2NC(=O)c2ccccc21 [Compound 1565]
[1]
  activity at 10 µM: 4%
[2]
  AD38 Viability Normalized Result (CPAM/DMSO %) at 10 μM: 103%

## O=C(Nc1ccncc1)c1ccc2c(c1)NC(=O)c1ccccc1S2 [Compound 1444]
[1]
  activity at 10 µM: 6%
[2]
  AD38 Viability Normalized Result (CPAM/DMSO %) at 10 μM: 65%

## Cc1cc(C(=O)NCCC2CCCCC2)cc2c1Sc1ccccc1C(=O)N2 [Compound 1286]
[1]
  activity at 10 µM: 36%
[2]
  AD38 Viability Normalized Result (CPAM/DMSO %) at 10 μM: 114%

## O=C1Nc2cc(S(=O)(=O)Nc3ccccc3)ccc2Sc2ccccc21 [Compound 1412]
[1]
  activity at 10 µM: 48%
[2]
  AD38 Viability Normalized Result (CPAM/DMSO %) at 10 μM: 87%

## Nc1nnc(CCNC(=O)c2ccc3c(c2)NC(=O)c2ccccc2S3)s1 [Compound 1568]
[1]
  activity at 10 µM: 1%
[2]
  AD38 Viability Normalized Result (CPAM/DMSO %) at 10 μM: 100%

## COC(=O)c1ccccc1-c1cccc(NC(=O)c2ccc3c(c2)NC(=O)c2ccccc2S3(=O)=O)c1 [Compound 1628]
[1]
  activity at 10 µM: 17%
[2]
  AD38 Viability Normalized Result (CPAM/DMSO %) at 10 μM: 138%

## O=C(Nc1ccc(F)cc1)c1ccc2c(c1)NC(=O)c1cc(F)ccc1S2 [Compound 1316]
[1]
  activity at 10 µM: 32%
[2]
  AD38 Viability Normalized Result (CPAM/DMSO %) at 10 μM: 89%

## O=C(NCCC1CCC(F)CC1)c1ccc2c(c1)NC(=O)c1ccccc1S2 (stereo not shown) [Compound 1217]
[1]
  activity at 10 µM: 1%
[2]
  AD38 Viability Normalized Result (CPAM/DMSO %) at 10 μM: 37%

## O=C1Nc2cc(S(=O)(=O)Nc3ccc(F)cc3F)ccc2Sc2ccccc21 [Compound 1526]
[1]
  activity at 10 µM: 57%
[2]
  AD38 Viability Normalized Result (CPAM/DMSO %) at 10 μM: 92%

## O=C(NCCc1cncnc1)c1ccc2c(c1)NC(=O)c1ccccc1S2(=O)=O [Compound 1457]
[1]
  activity at 10 µM: 28%
[2]
  AD38 Viability Normalized Result (CPAM/DMSO %) at 10 μM: 92%
